Assay results: US20140221340A1 (KYOWA HAKKO KIRIN CO., LTD., priority 2011, published 2014)

Each compound was assayed against T1, human CCR10 (Homo sapiens, UniProt P46092) (assay: Calcium assay of human CCR10 (inhibition of CTACK-induced increase in intracellular calcium ion concentration in hCCR10G16 cells)). Conditions: test compound 100 nmol/L; human recombinant CTACK; hCCR10G16 cells (KJMGER8/Namalwa-derived, Gα16 co-expressed); FLIPR or FDSS.
T1 construct: expressed in transfected cells; host or cells: KJMGER8 cell (cell line derived from Namalwa cell); expression induced with 10 nmol/L β-estradiol
T1 sequence (P46092 1-362): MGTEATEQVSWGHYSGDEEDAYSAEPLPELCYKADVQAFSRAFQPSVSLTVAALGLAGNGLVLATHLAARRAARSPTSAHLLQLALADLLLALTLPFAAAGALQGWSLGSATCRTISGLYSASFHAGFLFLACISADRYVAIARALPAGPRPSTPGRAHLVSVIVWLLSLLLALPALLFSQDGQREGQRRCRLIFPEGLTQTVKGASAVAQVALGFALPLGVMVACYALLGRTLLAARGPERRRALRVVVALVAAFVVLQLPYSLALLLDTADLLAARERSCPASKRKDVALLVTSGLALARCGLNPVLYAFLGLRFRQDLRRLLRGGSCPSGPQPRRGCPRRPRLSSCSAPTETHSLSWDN
Type: cell-based
In short: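 KJMGER8-derived hCCR10G16 cells (human CCR10 plus Gα16, expression induced 24 h with 10 nmol/L β-estradiol) were dye-loaded and preincubated with compound for 30 min at 37 °C, then stimulated with CTACK (300 nmol/L stock). Calcium flux over ~5 min (max−min fluorescence) gave percent inhibition versus DMSO control.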

Q: How did the “Inhibitory rate (%) for an increase in calcium ion concentration” value turn out when `Cc1cc(Cl)ccc1Nc1c(C(=O)N2CCC3(CC2)OCc2ccccc23)cnc2c(S(=O)(=O)NC(=O)C3CC3)cnn12` [a-46] was run?
A: >100%

Same assay, conditions: test compound 100 nmol/L; human recombinant CTACK; hCCR10G16 cells (KJMGER8/Namalwa-derived, Gα16 co-expressed); FLIPR or FDSS; read-out: Inhibitory rate (%) for an increase in calcium ion concentration

Q: With `Cc1ccc(Cl)c(Nc2c(C(=O)N3CCC4(CC3)OCc3ccccc34)cnc3c(S(=O)(=O)NC(=O)NCC(F)(F)F)cnn23)c1` [a-82, 7-(2-Chloro-5-methylphenylamino)-6-[3H-spiro(isobenzofuran-1,4′-piperidine)-1′-carbonyl]-N-(2,2,2-trifluoroethylcarbamoyl)pyrazolo[1,5-a]pyrimidine-3-sulfonamide] as the compound, how does the inhibition at 0.1 µM read?
A: 75.3%

Q: For `CCNC(=O)NS(=O)(=O)c1cnn2c(Nc3ccc(Cl)cc3C)c(C(=O)N3CCC4(CC3)OCc3ccccc34)cnc12` [a-47, 7-(4-Chloro-2-methylphenylamino)-N-(ethylcarbamoyl)-6-[3H-spiro(isobenzofuran-1,4′-piperidine)-1′-carbonyl]pyrazolo[1,5-a]pyrimidine-3-sulfonamide], which inhibition at 0.1 µM is on record?
A: > 100%

Q: Which inhibition at 0.1 µM does the source give for `O=C(c1cnc2c(S(=O)(=O)Nc3nncs3)cnn2c1Nc1cc(Cl)ccc1Cl)N1CCC(c2ccc(F)cc2)CC1` [a-78, 7-(2,5-Dichlorophenylamino)-6-[4-(4-fluorophenyl)piperidine-1-carbonyl]-N-(1,3,4-thiadiazol-2-yl)pyrazolo[1,5-a]pyrimidine-3-sulfonamide] here?
A: > 100%

Q: `Cc1cc(F)ccc1Nc1c(C(=O)N2CCC(c3ccccc3)CC2)cnc2c(S(=O)(=O)NC(=O)Nc3ccccc3)cnn12` [a-67, 7-(4-Fluoro-2-methylphenylamino)-N-phenylcarbamoyl-6-(4-phenylpiperidine-1-carbonyl)pyrazolo[1,5-a]pyrimidine-3-sulfonamide] was tested. Which inhibition at 0.1 µM did it give?
A: 63.7%

Q: For `Cc1ccc(Cl)c(Nc2c(C(=O)N3CCC4(CC3)OCc3ccccc34)cnc3c(S(=O)(=O)NC(=O)C4CCC4)cnn23)c1` [a-57, N-{7-(2-Chloro-5-methylphenylamino)-6-[3H-spiro(isobenzofuran-1,4′-piperidine)-1′-carbonyl]pyrazolo[1,5-a]pyrimidin-3-ylsulfonyl}cyclobutanecarboxamide], which inhibition at 0.1 µM is on record?
A: > 100%

Q: For `CCNC(=O)NS(=O)(=O)c1cnn2c(Nc3ccc(Cl)c(Cl)c3)c(C(=O)N3CCC(c4ccc(F)cc4)CC3)cnc12` [a-39, 7-(3,4-Dichlorophenylamino)-N-(ethylcarbamoyl)-6-[4-(4-fluorophenyl)piperidine-1-carbonyl]pyrazolo[1,5-a]pyrimidine-3-sulfonamide], which inhibition at 0.1 µM is on record?
A: > 100%

Q: For `CCC(=O)NS(=O)(=O)c1cnn2c(Nc3ccc(C)cc3Cl)c(C(=O)N3CCC(c4ccc(F)cc4)CC3)cnc12` [a-18, N-{7-(2-Chloro-4-methylphenylamino)-6-[4-(4-fluorophenyl)piperidine-1-carbonyl]pyrazolo[1,5-a]pyrimidin-3-ylsulfonyl}propionamide], which inhibition at 0.1 µM is on record?
A: 98.3%

Q: How did the inhibition at 0.1 µM turn out when `O=C(NC1CC1)NS(=O)(=O)c1cnn2c(Nc3ccc(F)cc3Cl)c(C(=O)N3CCC(c4ccc(F)cc4)CC3)cnc12` [a-21, 7-(2-Chloro-4-fluorophenylamino)-N-(cyclopropylcarbamoyl)-6-[4-(4-fluorophenyl)piperidine-1-carbonyl]pyrazolo[1,5-a]pyrimidine-3-sulfonamide] was run?
A: > 100%

Q: `CCNC(=O)NS(=O)(=O)c1cnn2c(Nc3ccc(F)cc3C)c(C(=O)N3CCC4(CC3)OCc3ccccc34)cnc12` [a-43, 7-(4-Fluoro-2-methylphenylamino)-N-(ethylcarbamoyl)-6-[3H-spiro(isobenzofuran-1,4′-piperidine)-1′-carbonyl]pyrazolo[1,5-a]pyrimidine-3-sulfonamide] was tested. Which inhibition at 0.1 µM did it give?
A: 92%

Q: With `CCC(=O)NS(=O)(=O)c1cnn2c(Nc3cc(C)ccc3Cl)c(C(=O)N3CC4(C3)CN(c3ccc(F)cc3)C4)cnc12` [a-60, N-{7-(2-Chloro-5-methylphenylamino)-6-[6-(4-fluorophenyl)-2,6-diazaspiro[3,3]heptane-2-carbonyl]pyrazolo[1,5-a]pyrimidin-3-ylsulfonyl}propionamide] as the compound, how does the inhibition at 0.1 µM read?
A: 90.2%

Q: With `Cc1cc(F)ccc1Nc1c(C(=O)N2CCC(c3ccccc3)CC2)cnc2c(S(=O)(=O)NC(=O)N3CCOCC3)cnn12` [a-68, N-[7-(4-Fluoro-2-methylphenylamino)-6-(4-phenylpiperidine-1-carbonyl)pyrazolo[1,5-a]pyrimidin-3-ylsulfonyl]morpholine-4-carboxamide] as the compound, how does the inhibition at 0.1 µM read?
A: 85.9%

Q: With `CCNS(=O)(=O)c1cnn2c(Nc3ccc(F)cc3C)c(C(=O)N3CCC(c4ccccc4)CC3)cnc12` [a-2, N-Ethyl-7-(4-fluoro-2-methylphenylamino)-6-(4-phenylpiperidine-1-carbonyl)pyrazolo[1,5-a]pyrimidine-3-sulfonamide] as the compound, how does the inhibition at 0.1 µM read?
A: > 100%

Q: Which inhibition at 0.1 µM does the source give for `Cc1ccc(Cl)c(Nc2c(C(=O)N3CCC(c4ccc(F)cc4)CC3)cnc3c(S(=O)(=O)NC(=O)NC4CC4(F)F)cnn23)c1` (centres unmarked) [a-37, 7-(2-Chloro-5-methylphenylamino)-N-(2,2-difluorocyclopropylcarbamoyl)-6-[4-(4-fluorophenyl)piperidine-1-carbonyl]pyrazolo[1,5-a]pyrimidine-3-sulfonamide] here?
A: > 100%

Q: How did the inhibition at 0.1 µM turn out when `CCC(=O)NS(=O)(=O)c1cnn2c(Nc3ccc(F)cc3Cl)c(C(=O)N3CCC4(CC3)OCc3ccccc34)cnc12` [a-50, N-{7-(2-Chloro-4-fluorophenylamino)-6-[3H-spiro(isobenzofuran-1,4′-piperidine)-1′-carbonyl]pyrazolo[1,5-a]pyrimidin-3-ylsulfonyl}propionamide] was run?
A: > 100%

Q: With `CCC(=O)NS(=O)(=O)c1cnn2c(Nc3cc(C(F)(F)F)ccc3Cl)c(C(=O)N3CCC(c4ccc(F)cc4)CC3)cnc12` [a-29, N-{7-(2-Chloro-5-trifluoromethylphenylamino)-6-[4-(4-fluorophenyl)piperidine-1-carbonyl]pyrazolo[1,5-a]pyrimidin-3-ylsulfonyl}propionamide] as the compound, how does the inhibition at 0.1 µM read?
A: > 100%

Q: `CCNS(=O)(=O)c1cnn2c(Nc3ccc(Cl)cc3C)c(C(=O)N3CCC(c4ccc(F)cc4)CC3)cnc12` [a-16, N-Ethyl-7-(4-chloro-2-methylphenylamino)-6-[4-(4-fluorophenyl)piperidine-1-carbonyl]pyrazolo[1,5-a]pyrimidine-3-sulfonamide] was tested. Which inhibition at 0.1 µM did it give?
A: > 100%

Q: How did the inhibition at 0.1 µM turn out when `Cc1cc(F)ccc1Nc1c(C(=O)N2CCC(c3ccc(F)cc3)CC2)cnc2c(S(=O)(=O)NCC(F)(F)F)cnn12` [a-4, 7-(4-Fluoro-2-methylphenylamino)-6-[4-(4-fluorophenyl)piperidine-1-carbonyl]-N-(2,2,2-trifluoroethyl)pyrazolo[1,5-a]pyrimidine-3-sulfonamide] was run?
A: > 100%

Q: Which inhibition at 0.1 µM does the source give for `CCC(=O)NS(=O)(=O)c1cnn2c(Nc3cc(Cl)ccc3Cl)c(C(=O)N3CCC4(CC3)OCc3ccccc34)cnc12` [a-53, N-{7-(2,5-Dichlorophenylamino)-6-[3H-spiro(isobenzofuran-1,4′-piperidine)-1′-carbonyl]pyrazolo[1,5-a]pyrimidin-3-ylsulfonyl}propionamide] here?
A: > 100%

Q: With `CC(=O)NS(=O)(=O)c1cnn2c(Nc3cc(C)ccc3Cl)c(C(=O)N3CCC4(CC3)OCc3ccccc34)cnc12` [a-55, N-{7-(2-Chloro-5-methylphenylamino)-6-[3H-spiro(isobenzofuran-1,4′-piperidine)-1′-carbonyl]pyrazolo[1,5-a]pyrimidin-3-ylsulfonyl}acetamide] as the compound, how does the inhibition at 0.1 µM read?
A: > 100%
